Here are results for eleven compounds from ChEMBL document CHEMBL1151493, “Cholestane glycosides with potent cytostatic activities on various tumor cells from Ornithogalum saundersiae bulbs” (Bioorg Med Chem Lett, 1997).

In brackets after ≈: the same amount, converted by molar mass.

As usually defined, the IC50 is the midpoint of a concentration-inhibition curve. Usually ILS stands for how much longer treated animals lived than controls. The low end stands for little gain in survival, the high end for much gain in survival.

Experiment [1] concerns HL-60. In words: Tested for the cytostatic activity as inhibitory concentration against leukemia HL-60 cells. Conditions: Homo sapiens. The format is functional, cell-based.
The test system of experiment [2] is P388. In words: Tested for the cytostatic activity as inhibitory concentration against P-388 mouse leukemia cells. The format is functional, cell-based.
For experiment [3], the system named is CCD 19Lu. In words: Tested for the cytostatic activity as inhibitory concentration against CCD-19Lu (human normal pulmonary) cells. The experiment is classed as functional, cell-based.
Experiment [4] deals with Lu-99 cell line. In words: Tested for the cytostatic activity as inhibitory concentration against Lu-99 human pulmonary large cell carcinoma. The format is functional, cell-based.
The test system of experiment [5] is CCRF-CEM. In words: Tested for the cytostatic activity as inhibitory concentration against CCRF-CEM human leukemia cells. The format is functional, cell-based.
The subject of experiment [6] is P388/ADM. The experiment is described as follows: Tested for the cytostatic activity as inhibitory concentration against adriamycin resistant P-388 mouse leukemia cells. The format is functional, cell-based.
Experiment [7] relates to Lu-65. In words: Tested for the cytostatic activity as inhibitory concentration against Lu-65 human pulmonary large cell carcinoma. The experiment is classed as functional, cell-based.
Experiment [8] concerns NCI-60 panel. In words: Tested in vitro for cytostatic activity against 60-cell line. Conditions: Homo sapiens.
The subject of experiment [9] is RERF-LC-AI. In words: Tested for the cytostatic activity as inhibitory concentration against RERF-LC-AI human pulmonary squamous cell carcinoma. The experiment is classed as functional, cell-based.
Experiment [10] relates to P388CPT. The experiment is described as follows: Tested for the cytostatic activity as inhibitory concentration against camptothecin resistant P-388 mouse leukemia cells. The experiment is classed as functional, cell-based.
The test system of experiment [11] is HL-60. The experiment is described as follows: Tested in vitro for cytostatic activity against 60-cell line. The format is functional, Homo sapiens.
Experiment [12] is filed under the species Homo sapiens. The experiment is described as follows: Tested for hemolytic activity in human erythrocytes at 100 ug/ml; Not hemolytic. The experiment is classed as functional.
In experiment [13] the test system is FM3A. In words: Tested for the cytostatic activity as inhibitory concentration against FM3A mouse mastrocarcinoma cells. The format is functional, cell-based.
The subject of experiment [14] is A549. In words: Tested for the cytostatic activity as inhibitory concentration against A-549 human pulmonary adenocarcinoma cells. The experiment is classed as functional, cell-based.
Experiment [15] relates to Mus musculus. In words: Increased life span against mouse P388 leukemic cells after 0.01 mg/kg administration in mice. The experiment is classed as functional.
The mark [16] stands for this setting: Mus musculus, P388, read-out: IC50.
The mark [17] stands for this setting: Homo sapiens, CCD 19Lu, read-out: IC50.
Setting [18] is: Homo sapiens, Lu-99, read-out: IC50.
The mark [19] stands for this setting: Homo sapiens, CCRF-CEM, read-out: IC50.

As for `COc1ccc(C(=O)O[C@@H]2[C@H](O[C@H]3[C@@H](OC(C)=O)[C@H](O[C@H]4C[C@H]5[C@@H]6CC=C7C[C@@H](O)CC[C@]7(C)[C@H]6CC[C@]5(C)[C@]4(O)[C@H](C)C(=O)CCC(C)C)OC[C@@H]3O)OC[C@@H](O)[C@@H]2O)cc1OC`, the IC50 in experiment [1] came to 0.2 nM.
Regarding `COc1cccc2c1C(=O)c1c(O)c3c(c(O)c1C2=O)C[C@@](O)(C(=O)CO)C[C@@H]3O[C@H]1C[C@H](N)[C@H](O)[C@H](C)O1` [DOXORUBICIN], the half-inhibitory concentration (IC50) in experiment [2] (setting [16]) came out at 3 ng/mL (≈ 5.52 nM); in [3] (setting [17]) it was 2000 ng/mL (≈ 3680 nM); in experiment [4] (setting [18]), 2 ng/mL (≈ 3.68 nM); in [5] (setting [19]), 10 ng/mL (≈ 18.4 nM).
In turn, `CC(=O)O[C@H]1[C@H](O[C@H]2C[C@H]3[C@@H]4CC=C5C[C@@H](O[C@@H]6O[C@@H](CO)[C@@H](O)[C@H](O)[C@@H]6O)CC[C@]5(C)[C@H]4CC[C@]3(C)[C@@]2(O)[C@H](C)C(=O)CCC(C)C)OC[C@H](O)[C@H]1O[C@@H]1OC[C@@H](O)[C@H](O)[C@@H]1OC(=O)/C=C/c1ccccc1` displayed an IC50 in experiment [1] of 0.12 nM.
Consider `CO[C@@]12[C@H](COC(N)=O)C3=C(C(=O)C(C)=C(N)C3=O)N1C[C@@H]1N[C@@H]12` [MITOMYCIN], for which the IC50 turned out to be 10 ng/mL (≈ 29.9 nM) in experiment [2] (setting [16]), 2000 ng/mL (≈ 5980 nM) in experiment [3] (setting [17]), 10 ng/mL (≈ 29.9 nM) in [4] (setting [18]) and 20 ng/mL (≈ 59.8 nM) in experiment [5] (setting [19]).
The compound `CC(=O)O[C@H]1[C@H](O[C@H]2C[C@H]3[C@@H]4CC=C5C[C@@H](O)CC[C@]5(C)[C@H]4CC[C@]3(C)[C@@]2(O)[C@H](C)C(=O)CCC(C)C)OC[C@H](O)[C@H]1O[C@@H]1OC[C@@H](O)[C@H](O)[C@@H]1OC(=O)/C=C/c1ccccc1` showed an IC50 in experiment [1] of 0.29 nM.
On to CISPLATIN, for which the IC50 is 50 ng/mL in experiment [2] (p388), 10000 ng/mL in experiment [3] (ccd 19lu), 1 ng/mL in experiment [4] (lu-99) and 5 ng/mL in experiment [5] (ccrf-cem).
`COc1ccc(C(=O)O[C@@H]2[C@H](O[C@H]3[C@@H](OC(C)=O)[C@H](O[C@H]4C[C@H]5[C@@H]6CC=C7C[C@@H](O)CC[C@]7(C)[C@H]6CC[C@]5(C)[C@@]4(O)[C@H](C)C(=O)CCC(C)C)OC[C@@H]3O)OC[C@@H](O)[C@@H]2O)cc1`: the IC50 in experiment [6] is 0.77 ng/mL (≈ 0.882 nM); in experiment [7], 0.2 ng/mL (≈ 0.229 nM); in experiment [8], 0.78 nM; in [9], 0.26 ng/mL (≈ 0.298 nM); in experiment [1], 0.25 nM; in experiment [10], 0.1 ng/mL (≈ 0.115 nM). Moreover, the IC50 stood at 0.13 ng/mL (≈ 0.149 nM) in experiment [2] (setting [16]); 1500 ng/mL (≈ 1720 nM) in experiment [3] (setting [17]); 0.16 ng/mL (≈ 0.183 nM) in experiment [13]; 0.68 ng/mL (≈ 0.779 nM) in experiment [14]; 0.2 ng/mL (≈ 0.229 nM) in experiment [4] (setting [18]); 0.16 ng/mL (≈ 0.183 nM) in experiment [5] (setting [19]). This compound returned an IC100 in experiment [11] of 58 nM. In experiment [12], the Activity entry was “Not hemolytic”. The same compound came in with an ILS at 0.01 mg/kg in experiment [15] of 59%.
`COc1ccc(C(=O)O[C@@H]2[C@H](O[C@H]3[C@@H](OC(C)=O)[C@H](O[C@H]4C[C@H]5[C@@H]6CC=C7C[C@@H](O[C@@H]8O[C@@H](CO)[C@@H](O)[C@H](O)[C@@H]8O)CC[C@]7(C)[C@H]6CC[C@]5(C)[C@@]4(O)[C@H](C)C(=O)CCC(C)C)OC[C@@H]3O)OC[C@@H](O)[C@@H]2O)cc1` had an IC50 in experiment [1] of 0.24 nM.
Take `CC[C@@]1(O)C(=O)OCc2c1cc1n(c2=O)Cc2cc3ccccc3nc2-1` [CAMPTOTHECIN]: the IC50 in experiment [2] (setting [16]) is 5 ng/mL (≈ 14.4 nM); in experiment [3] (setting [17]), 2000 ng/mL (≈ 5740 nM); in experiment [4] (setting [18]), 1 ng/mL (≈ 2.87 nM); in [5] (setting [19]), 5 ng/mL (≈ 14.4 nM).
For `CC(=O)O[C@H]1C(=O)[C@@]2(C)[C@H]([C@H](OC(=O)c3ccccc3)[C@]3(O)C[C@H](OC(=O)[C@H](O)[C@@H](NC(=O)c4ccccc4)c4ccccc4)C(C)=C1C3(C)C)[C@]1(OC(C)=O)CO[C@@H]1C[C@@H]2O` [PACLITAXEL], the IC50 in experiment [2] (setting [16]) is 10 ng/mL (≈ 11.7 nM); in experiment [3] (setting [17]), 2000 ng/mL (≈ 2340 nM); in experiment [4] (setting [18]), 2 ng/mL (≈ 2.34 nM); in [5] (setting [19]) it was 1 ng/mL (≈ 1.17 nM).
`CC(C)CCC(=O)[C@@H](C)[C@@]1(O)[C@@H](O[C@@H]2OC[C@H](O)[C@@H](O[C@@H]3OC[C@@H](O)[C@H](O)[C@@H]3O)[C@H]2O)C[C@H]2[C@@H]3CC=C4C[C@@H](O)CC[C@]4(C)[C@H]3CC[C@@]21C` registered an IC50 in experiment [1] of 190 nM.
